One data set relates to BV-2 cells. Put plainly: Inhibition of inflammation in LPS-stimulated BV-2 cells (ELISA of inflammatory factors). The format is cell-based. As to conditions: Mus musculus, 100 ng/mL LPS 4 hours; for Emax: read-out: BV-2 Max Inh. (%); for IC50: read-out: BV-2 Rf IC50. As for the experimental part: Normal cultured 8th passage BV-2 cells were taken, and inoculated separately in 96-well plates at a certain cell density. The cell culture plates were cultured at 37° C. and 5% CO2 for 24 hours.
After inoculating the plate for 24 hours, the cell culture medium was removed, and then 100 μL of a 4-fold gradient dilution compound starting from 10,000 nM prepared in DMEM+10% FBS, where High control and Low control contained 0.1% DMSO without compound. With 100 μL per well, the cell culture plate was cultured at 37° C. with 5% CO2 for one hour.
The compound-containing cultures were removed. 100 ng/mL of LPS was prepared with DMEM+10% FBS culture medium, and then the compound was diluted in a 4-fold gradient from 10,000 nM with LPS-containing culture medium. In low control, the compound was replaced with 0.1% DMSO. In High control, 0.1% DMSO was prepared with culture medium without LPS. 100 μL per well, and the cell culture plates were cultured at 37° C. with 5% CO2 for 4 hours.
After 4 hours of LPS stimulation, 110 μL of the culture solution was aspirated, and centrifuged at 2000 rpm for 2 minutes. A further 90 μl of supernatant was aspirated and immediately put into −20° C. for freezing.
ELISA kits were used to detect the expression of inflammatory factors such as IL-10, TNFα, etc. The OD450 signal values were measured by microplate reader. The in vitro inhibitory activity of the compounds was calculated according to the following formula: Inhibition rate: Inhibition rate (%)=(signal value of control−signal value of administration)/(high signal value of control−low signal value of control)×100%. And according to the inhibition rate of each concentration, Graphpad Prism 5.0 was used to curve fit the […] signal values at each concentration and calculate the corresponding IC50, which is shown in Table 1.

For the next data set, the target named is p38β (Homo sapiens, UniProt Q15759). The data set is described as follows: In vitro inhibition of p38 kinase (LANCE Ultra TR-FRET). The data set is classed as biochemical. The conditions noted are these: read-out: Kinase in vitro IC50(nM) p38β. (In TR-FRET formats the signal depends on donor and acceptor labels being close together.)
Sequence of p38β (Q15759 whole entry): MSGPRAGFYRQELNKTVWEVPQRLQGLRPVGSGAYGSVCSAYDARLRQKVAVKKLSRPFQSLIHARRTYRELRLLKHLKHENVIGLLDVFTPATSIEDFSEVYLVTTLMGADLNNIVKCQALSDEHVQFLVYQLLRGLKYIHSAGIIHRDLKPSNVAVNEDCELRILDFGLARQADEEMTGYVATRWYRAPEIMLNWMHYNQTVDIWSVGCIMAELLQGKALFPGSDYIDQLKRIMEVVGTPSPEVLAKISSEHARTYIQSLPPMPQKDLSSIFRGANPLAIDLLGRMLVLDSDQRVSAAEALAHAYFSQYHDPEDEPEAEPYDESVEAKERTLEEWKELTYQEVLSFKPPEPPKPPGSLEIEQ
The target of the next data set is p38α (Homo sapiens, UniProt Q16539). The description is as above. The format is biochemical. As to conditions: read-out: Kinase in vitro IC50(nM) p38α.
Sequence of p38α (Q16539 whole entry): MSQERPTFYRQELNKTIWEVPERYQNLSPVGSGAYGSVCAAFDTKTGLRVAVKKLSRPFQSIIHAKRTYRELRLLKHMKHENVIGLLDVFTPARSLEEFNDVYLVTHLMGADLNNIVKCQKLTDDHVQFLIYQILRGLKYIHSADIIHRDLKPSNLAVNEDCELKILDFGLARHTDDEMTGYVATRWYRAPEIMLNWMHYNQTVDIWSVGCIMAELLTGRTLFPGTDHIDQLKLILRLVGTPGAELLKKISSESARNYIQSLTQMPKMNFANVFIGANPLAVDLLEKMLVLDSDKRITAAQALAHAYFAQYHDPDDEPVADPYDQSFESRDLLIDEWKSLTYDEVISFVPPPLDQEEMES
For a further data set, the target named is T1, p38γ (Homo sapiens, UniProt P53778).
T1 sequence (P53778 1-367): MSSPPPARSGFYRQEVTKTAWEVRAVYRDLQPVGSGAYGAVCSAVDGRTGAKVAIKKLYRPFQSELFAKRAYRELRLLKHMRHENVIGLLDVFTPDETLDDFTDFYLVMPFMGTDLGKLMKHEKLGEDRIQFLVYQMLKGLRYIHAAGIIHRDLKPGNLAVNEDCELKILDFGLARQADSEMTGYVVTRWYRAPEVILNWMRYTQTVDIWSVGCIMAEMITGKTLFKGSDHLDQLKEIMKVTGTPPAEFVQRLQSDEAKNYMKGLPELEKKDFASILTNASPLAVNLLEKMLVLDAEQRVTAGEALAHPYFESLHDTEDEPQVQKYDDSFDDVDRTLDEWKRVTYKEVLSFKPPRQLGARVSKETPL
Described as above. The format is biochemical. The conditions noted are these: read-out: Kinase in vitro IC50(nM) p38γ. Here is the method:
10 mM of the storage solution of the test compound was taken and placed in a 96-well compound plate, and using DMSO for the compound at an initial concentration of 100×, which was then used as the first concentration and then carried out a 3-fold gradient dilution with DMSO for a total of 10 concentrations. After that, 1 μL of gradient dilutions were added to 19 μL of 1× reaction buffer to prepare 5× compound for later use. […] To the compound-free control well was added 2 μL of the following liquid: 19 μL of 1× reaction buffer with addition of 1 μL of DMSO. To the Min control well was added 2 μL of 250 mM EDTA.
1× of LANCE® Detection value Buffer was used to prepare a 2×Antibody for use, and the amount was 5 μL per well, at the same time 10 mM EDTA was prepared for later use. After the enzyme reaction was carried out for 30 minutes, 5 μL 10 mM EDTA was added to the 384-well plate and the reaction was carried out at room temperature for 5 minutes. Afterwards, 5 μL LANCE® Ultra Europium-anti-phospho-eIF4E-binding protein 1 (Thr37/46) was added to the 384-well plate and the reaction was carried out at room temperature for one hour.

Data set [1] can be described thus: Pharmacokinetic properties in mice. As to conditions: for absorption compared with the positive compound VX-745 at the same dose: 10 mg/kg; for Thalf (iv): iv 3 mg/kg; for Cmax / MRT / Tmax: male, ICR, mouse, plasma; for Cmax / MRT / Tmax / AUClast (po): po 10 mg/kg; for BA: po 10 mg/kg vs iv 3 mg/kg; for AUClast (po): 5-1440 minutes. The format is in vivo, ICR mice. Here is the method: Forty-eight male ICR mice, weighing 18-22 g (provided by Shanghai Xipuerbikai Laboratory Animal Co., Ltd, Certificate No.: 20130016008116). The mice were […] for 12-16 hours before the experiment but water was allowed.
Blood samples were collected from the fundus vein of mice before and at 2, 5, 15, 30, 60, 90, 120, 240, 480, 600, and 1440 minutes of the administration, respectively.
Blood samples were collected from the fundus vein of mice before and at 5, 15, 30, 60, 90, 120, 240, 480 and 1440 minutes of administration, respectively.
2-3 time points were taken for each mouse. The mice were sacrificed at 5, 15, 30, 60 and 1440 minutes after the administration (3 mice per time point), and the brains were taken, rinsed with saline, dried on filter paper and weighed.
Blood samples were centrifuged at 8000 rpm for 5 minutes, and supernatant plasma was taken. To 50 μL of plasma samples was added 300 μL of acetonitrile containing internal standard (propranolol, 25 ng/mL) to precipitate the protein. After vortexing for 10 minutes and centrifuging at 6000 g and 4° C. for 10 minutes, the supernatant was taken and placed in a 96-well plate for determination of drug concentration in plasma by UPLC/MS-MS.

The source of these data is patent US20220048915A1 (SHANGHAI PHARMACEUTICALS HOLDING CO., LTD., priority 2018, published 2022).

For orientation: IC50 means the concentration needed to halve the response being measured. Turning to `O=c1ncn2nc(Oc3ccccc3Br)ccc2c1-c1c(Cl)cccc1Cl` [Compound I-17, 2-(2-bromophenoxy)-5-(2,6-dichlorophenyl)-6H-pyrimido[1,6-b]pyridazin-6-one], in the data set on BV-2 cells, the Emax is -60%. The IC50 in the data set with BV-2 cells is 95.8 nM; at p38β, 316 nM; on p38α it was 34.8 nM; on p38γ it was greater than 3330 nM.

As to `O=c1ncn2nc(Oc3cc(Cl)ccc3Cl)ccc2c1-c1c(Cl)cccc1Cl` [Compound I-22, 2-(2,5-dichlorophenoxy)-5-(2,6-dichlorophenyl)-6H-pyrimido[1,6-b]pyridazin-6-one], the Emax in the data set with BV-2 cells amounted to 53.6%. The IC50 in the data set on BV-2 cells was 18.3 nM; on p38β it was 150 nM; at p38α, 31.3 nM; on p38γ, greater than 3330 nM.

In the case of `CC(C)N1CCN(c2cc3c(-c4c(Cl)cccc4Cl)c(=O)ncn3nc2Oc2ccc(F)cc2F)CC1` [Compound I-60, 5-(2,6-dichlorophenyl)-2-(2,4-difluorophenoxy)-3-(4-isopropylpiperazin-1-yl)-6H-pyrimido[1,6-b]pyridazin-6-one], in the data set on BV-2 cells, the Emax turned out to be 34.5%. Moreover, the IC50 is 12.4 nM in the data set on BV-2 cells, 111 nM at p38β, 14.8 nM at p38α and greater than 3330 nM at p38γ.

For `O=c1ncn2nc(Oc3cccc(Br)c3)ccc2c1-c1c(Cl)cccc1Cl` [Compound I-10, 2-(3-bromophenoxy)-5-(2,6-dichlorophenyl)-6H-pyrimido[1,6-b]pyridazin-6-one], in the data set with BV-2 cells, the Emax is -60%. The IC50 was 75.6 nM in the data set with BV-2 cells, 434 nM on p38β, 60.6 nM at p38α and greater than 3330 nM at p38γ.

With `O=c1ncn2nc(Oc3cccc(F)c3F)ccc2c1-c1c(Cl)cccc1Cl` [Compound I-23, 5-(2,6-dichlorophenyl)-2-(2,3-difluorophenoxy)-6H-pyrimido[1,6-b]pyridazin-6-one], in the data set on BV-2 cells, the Emax is -50%. Further, the half-maximal inhibitory concentration (IC50) in the data set with BV-2 cells is 17.2 nM; at p38β, 243 nM; at p38α, 46.9 nM; at p38γ, greater than 3330 nM.

For orientation: Cmax means the peak of the concentration-time curve. In general, MRT refers to a mean duration of stay, worked out from the concentration-time curve. For orientation: Tmax means the time at which the peak concentration occurs. As to `O=c1ncn2nc(Oc3ccc(F)cc3F)ccc2c1-c1cc(Cl)ccc1Cl` [Compound I-46, 5-(2,5-dichlorophenyl)-2-(2,4-difluorophenoxy)-6H-pyrimido[1,6-b]pyridazin-6-one], in data set [1], the “absorption compared with the positive compound VX-745 at the same dose” value is “better”, the “Thalf (iv)” value worked out at 3.96 h, the Cmax came out at 891 ng/mL and the MRT came out at 4.86 h. For the same compound, in data set [1], the time to peak (Tmax) was 2 h, the BA worked out at 119.3% and the “AUClast (po)” value is on record as 4016 (h)*(ng/mL). At p38β, the IC50 came out at 403 nM. The half-inhibitory concentration (IC50) on p38α was 19.7 nM. Besides, the half-inhibitory concentration (IC50) on p38γ is greater than 3330 nM.

With `O=c1ncn2nc(Oc3ccc(Cl)cc3Br)ccc2c1-c1c(Cl)cccc1Cl` [Compound I-15, 2-(2-bromo-4-chlorophenoxy)-5-(2,6-dichlorophenyl)-6H-pyrimido[1,6-b]pyridazin-6-one], the Emax in the data set with BV-2 cells stood at 46%. Further, the 50% inhibitory concentration (IC50) was 132 nM in the data set with BV-2 cells, 263 nM at p38β, 41.3 nM at p38α and greater than 3330 nM at p38γ.

As to `O=c1ncn2nc(Oc3ccc(Cl)cc3Cl)ccc2c1-c1c(Cl)cccc1Cl` [Compound I-20, 2-(2,4-dichlorophenoxy)-5-(2,6-dichlorophenyl)-6H-pyrimido[1,6-b]pyridazin-6-one], the Emax in the data set with BV-2 cells was -60%. For the same compound, the half-inhibitory concentration (IC50) in the data set on BV-2 cells is 23.3 nM; at p38β, 96 nM; on p38α, 17.6 nM; on p38γ, greater than 3330 nM.

For the compound `Cc1ccccc1-c1c(=O)ncn2nc(Oc3ccc(F)cc3F)ccc12` [Compound I-50, 2-(2,4-difluorophenoxy)-5-(o-methylphenyl)-6H-pyrimido[1,6-b]pyridazin-6-one], in data set [1], the “absorption compared with the positive compound VX-745 at the same dose” value is “better”, the “Thalf (iv)” value is reported as 1.93 h, the Cmax turned out to be 928 ng/mL and the mean residence time MRT worked out at 3.05 h. Moreover, in data set [1], the Tmax was 0.83 h, the BA was 84.9% and the “AUClast (po)” value is reported as 3107 (h)*(ng/mL). In addition, the 50% inhibitory concentration (IC50) on p38β is 1090 nM. The IC50 at p38α is 34.2 nM. Besides, on p38γ, the IC50 is greater than 3330 nM.

For `O=c1ncn2nc(Oc3ccc(Cl)cc3F)ccc2c1-c1c(Cl)cccc1Cl` [Compound I-6, 2-(4-chloro-2-fluorophenoxy)-5-(2,6-dichlorophenyl)-6H-pyrimido[1,6-b]pyridazin-6-one], the Emax in the data set with BV-2 cells was found to be 44.7%. The IC50 with BV-2 cells was 16.1 nM; at p38β, 109 nM; at p38α, 13.6 nM; on p38γ, greater than 3330 nM.

In the case of `O=c1ncn2nc(OCC(F)(F)F)ccc2c1-c1c(Cl)cccc1Cl` [Compound I-13, 5-(2,6-dichlorophenyl)-2-(2,2,2-trifluoroethoxy)-6H-pyrimido[1,6-b]pyridazin-6-one], the 50% inhibitory concentration (IC50) at p38β, on p38α and on p38γ was greater than 3330 nM each time.

As to `O=c1ncn2nc(Oc3ccc(F)cc3F)ccc2c1-c1c(F)cc(F)cc1F` [Compound I-57, 5-(2,4,6-trifluorophenyl)-2-(2,4-difluorophenoxy)-6H-pyrimido[1,6-b]pyridazin-6-one], the half-maximal inhibitory concentration (IC50) is 614 nM on p38β, 22.7 nM at p38α and greater than 3330 nM on p38γ.

Consider `O=c1ncn2nc(Oc3ccc(F)cc3F)ccc2c1-c1c(F)cccc1F` [Compound I-49, 2-(2,4-difluorophenoxy)-5-(2,6-difluorophenyl)-6H-pyrimido[1,6-b]pyridazin-6-one], for which the IC50 on p38β was 213 nM; at p38α, 14.1 nM; at p38γ, greater than 3330 nM.

As for `O=c1ncn2nc(OC3CCCC=C3Cl)ccc2c1-c1c(Cl)cccc1Cl` (stereo not drawn) [Compound I-42, 2-((2-chlorocyclohex-2-en-1-yl)oxy)-5-(2,6-dichlorophenyl)-6H-pyrimido[1,6-b]pyridazin-6-one], the IC50 at p38β is 686 nM; at p38α it was 228 nM; at p38γ, greater than 3330 nM.
